Results on one substance are retold here after article PMC9676923, “Characterization of relaxin 3 and its receptors in chicken: Evidence for relaxin 3 acting as a novel pituitary hormone” (Frontiers in Physiology, 2022).

For test [1], the system named is cRXFP1. As to the kind of experiment: pGL3-CRE-luciferase reporter (cAMP/PKA), HEK293 cells expressing cRXFP1. The class given is cell-based, chicken. As for the experimental part:
(§1) According to our previously established methods ([Liu et al., 2019]; [Jiang et al., 2022]), two cell-based luciferase reporter systems (pGL3-CRE-luciferase and pGL3-NFAT-RE-luciferase) were used to verify whether cRLN3cm is biologically active and capable of activating cRXFP1 and cRXFP3. In brief, HEK293 cells transiently expressing each receptor (cRXFP1 and cRXFP3) were treated with 30 μl serum-free medium containing cRLN3cm or pcDNAcm (0.001–10 μl) for 6 h, and the receptor-activated cAMP/PKA pathways and calcium mobilization were then monitored by pGL3-CRE-luciferase and pGL3-NFAT-RE-luciferase reporter systems, respectively. HEK293 cells expressing empty pcDNA3.1 (+) were used as a negative control.
(§2) To compare the functional difference between chicken RLN3 and human RLN3, recombinant human RLN3 (rhRLN3, 10^–12 to 10^–7 M, 6 h) was used to treat HEK293 cells expressing cRXFP1 or cRXFP3, respectively, and its potency in activating cRXFP1 and cRXFP3 was also evaluated.
(§3) To verify whether chicken RLN3 can activate RXFP1 or RXFP3, a cRLN3-conditioned medium (cRLN3cm, 0.001–10 μl) was used to treat HEK293 cells expressing cRXFP1/cRXFP3. Receptor activation was examined by pGL3-CRE-luciferase and pGL3-NFAT-RE-luciferase reporter systems established in our previous studies ([Liu et al., 2019]).

Test [2] has as its system cRXFP3. As to the kind of experiment: pGL3-CRE-luciferase reporter, inhibition of forskolin-stimulated luciferase activity, HEK293 cells expressing cRXFP3. The class given is cell-based, chicken. The note with it: rhRLN3 10^-12 to 10^-7 M, 6 h, HEK293 cells transiently expressing cRXFP3, N = 3, read-out: EC50, cAMP/PKA, cRXFP3 (inhibition of forskolin-stimulated luciferase activity). On the procedure: as §1, §2, §3
(In a reporter assay the amount or activity of a reporter protein is the signal.)

Test [3] has as its system cRXFP1. As to the kind of experiment: pGL3-NFAT-RE-luciferase reporter (calcium mobilization), HEK293 cells expressing cRXFP1. The note with it: rhRLN3 10^-12 to 10^-7 M, 6 h, HEK293 cells transiently expressing cRXFP1, N = 3, read-out: EC50, Ca^2+, cRXFP1. The class given is cell-based, chicken. As for the experimental part:
as §1, §2, §3

In test [4] the test system is cRXFP3. Briefly: pGL3-NFAT-RE-luciferase reporter (calcium mobilization), HEK293 cells expressing cRXFP3. The class given is cell-based, chicken. The conditions noted are these: rhRLN3 10^-12 to 10^-7 M, 6 h, N = 3. As for the experimental part:
as §1, §2, §3

The subject of test [5] is HEK293 cells transfected with an empty pcDNA3.1 (+) vector. Briefly: Luciferase reporter control, HEK293 cells transfected with empty pcDNA3.1 (+) vector. The class given is cell-based. The conditions noted are these: rhRLN3 10^-12 to 10^-7 M, 6 h; pGL3-CRE and pGL3-NFAT-RE reporters; N = 3. An excerpt: According to our previously established methods ([Liu et al., 2019]; [Jiang et al., 2022]), two cell-based luciferase reporter systems (pGL3-CRE-luciferase and pGL3-NFAT-RE-luciferase) were used to verify whether cRLN3cm is biologically active and capable of activating cRXFP1 and cRXFP3. […] HEK293 cells expressing empty pcDNA3.1 (+) were used as a negative control.
To explore whether pituitary cells can secrete RLN3, we collected the extracellular medium of adult female chicken pituitary cells to detect its activation potential. According to the method provided in the previous article ([Sun et al., 2021]; [Liu et al., 2022]), the anterior pituitaries from a laying hen were isolated and further cut into small pieces with clean scissors. After washing with PBS, the cut pieces were then digested with 0.25% trypsin at 37°C for 30 min. The dispersed pituitary cells were cultured in Medium 199 supplemented with 10% fetal bovine serum in a Corning Cell BIND 48-well plate (Corning, Tewksbury, MA) at 37°C with 5% CO2. […] The HEK293 cells expressing cRXFP1 were treated with a 60 μl serum-free medium containing chicken pituitary cell extracellular medium (2 × 10^−3μl to 2 × 10^1 μl) for 6 h, and then receptor-activated calcium mobilization was monitored by pGL3-NFAT-RE-luciferase reporter systems. […]

In the case of recombinant human relaxin 3 [rhRLN3], the “potency on cRXFP1 compared with cRXFP3 (in words)” value in test [1] (HEK293 cells expressing cRXFP1 or cRXFP3) is “higher potency for cRXFP1 activation”. For the same substance, the EC50 came to 2.68 nM in test [1] (rhRLN3 10^-12 to 10^-7 M, 6 h, HEK293 cells transiently expressing cRXFP1, mean of three replicates (N = 3)); 41.5 nM in test [2]; 21.1 nM in test [3]. Besides, the “stimulation of luciferase activity (Ca^2+), cRXFP3” value in test [4] was “not cRXFP3”. Also, the “change of luciferase activity in empty-vector cells” value in test [5] was “did not change the luciferase activity”.
